Experimental data taken from publication PMC7869707 (European Journal of Medicinal Chemistry, 2021).

Test system: wild-type SARS-CoV-2 (wuhan-HU-1 variant)
Assay type: cell-based

C[C@@H]1O[C@@H](O[C@H]2[C@H](O[C@H]3CC[C@]4(C)[C@H]5CC=C6[C@@H]7CC(C)(C)CC[C@]7(C(=O)NCc7ccccc7)CC[C@@]6(C)[C@]5(C)CC[C@H]4C3(C)C)O[C@H](CO)[C@@H](O[C@@H]3O[C@@H](C)[C@H](O)[C@@H](O)[C@H]3O)[C@@H]2O)[C@H](O)[C@H](O)[C@H]1O [Compound 12f, N-{3β-O-[2,4-di-O-(a-L-rhamnopyranosyl)-β-D-glucopyranosyl]-olean-12-en-28-oyl}-benzylamine]
Inhibition of SARS-CoV-2 infection by IFA, NP expression: dose-dependent manner
